According to US3932492A, “Process for preparing new amidine compounds” (Kao Soap Co., Ltd., priority 1973, dated 1976):

Tested on: Wakin goldfish
Assay: Toxicity to fish, plant waste water test method (JIS-K-0102-1964)
Type: in vivo
Method: The test was carried out according to plant waste water test method (JIS-K-0102-1964). Wakin goldfish was used as the subject.
*A concentration at which half the number of the subjects died within 48
hours. The higher the number of ppm., the lower the toxicity to fish.

Benzalkonium chloride
TLM (concentration at which half the number of the subjects died within 48 hours): 0.87 ppm
